Test results: article PMC9569971, “New Oxazolo[5,4-d]pyrimidines as Potential Anticancer Agents: Their Design, Synthesis, and In Vitro Biological Activity Research” (International Journal of Molecular Sciences, 2022)
Entries after “also recorded” stand apart in the source; their conditions may differ.

Tests used:
[1] = tested on: primary colon adenocarcinoma (HT29); experiment: MTT viability assay, HT29; assay type: cell-based, human; details: for SI (selectivity index): CC50 NHDF / CC50 HT29
Experimental: (§1) When the confluence was greater than 70%, adherent cell lines were detached from the bottle surface with a TrypLE solution and then used in assays or reduced. The cells were collected into centrifuge tubes and centrifuged at 1000× g for 5 min at room temperature. The supernatant was removed to dry. The cell pellets were then resuspended in an appropriate medium. The cells were counted using a Bürker chamber and resuspended in 96-well plates to a cell density of 10,000 cells per well for MTT assay. For the rhodamine accumulation test and the detection of apoptosis assay, cells were seeded at a density of 30,000 per well. In the migration assay, cells were seeded at a density of 20,000 per well, and monolayer formation was awaited.
(§2) In this study, normal human dermal fibroblasts (NHDFs), breast cancer cells (MCF7), human lung adenocarcinoma cells (A549), murine fibroblasts (L929), colon adenocarcinoma cells (HT29), and colorectal adenocarcinoma cells (LoVo) were used. All cell lines were cultured in the recommended media. […] The human lung adenocarcinoma cell line A549 and breast cancer cell line MCF-7 were obtained from the ECACC. These cell lines were cultured in Eagle’s minimal essential medium (MEM). Murine fibroblast L929 (Sigma-Aldrich, Merck Group, Headquarters, Darmstadt, Germany; the European Collection of Authenticated Cell Cultures—ECACC) cells were grown in DMEM. […] All media were supplemented with 10% FBS and 100 µg/mL of penicillin–streptomycin.
(§3) All compounds were dissolved in DMSO and the reference drugs were dissolved in physiological saline to concentrations of 10 mM. Concentrations from 1 to 500 μM in the media recommended for the cell lines were prepared for the tests.
(§4) All of the synthesized derivatives were evaluated via the MTT assay. All cell lines were seeded into 96-well plates at a density of 10,000 cells per well. To allow the cells to adhere to the surface of the plates, they were incubated overnight before the application of the test compounds. […] The tests were performed for concentrations of 1, 5, 10, 25, 50, 100, 250, and 500 μM. The solutions of the test compounds were removed from the culture on the 96-well plates. […] The supernatant was then removed. The violet crystal was dissolved in isopropanol for 30 min by shaking. Absorbance was measured at 570 nm.
(§5) Biological assays were performed in three independent replicates, and each replicate used four samples. Three repetitions were made for the ELISA determinations. For the assessment of cytotoxicity, mathematical models were developed using the GraphPad PRISM software, based on which CC50 was determined. The values of CC50 were estimated based on nonlinear regression using the dependence of the biological effect on the molar concentrations of the compounds (four-parameter logistic model with Hill slope).

[2] = tested on: normal human dermal fibroblasts (NHDF); experiment: MTT viability assay, NHDF; assay type: cell-based; details: tested 1–500 µM
Experimental: as §1, §2, §3, §4, §5

[3] = tested on: breast adenocarcinoma (MCF7); experiment: MTT viability assay, MCF7; assay type: cell-based, human; details: for SI (selectivity index): CC50 NHDF / CC50 MCF7; for CC50: Homo sapiens
Experimental: as §1, §2, §3, §4, §5

[4] = MTT viability assay, L929; assay type: cell-based, murine; details: mouse, L929 fibroblasts, tested 1–500 µM
Experimental: as §1, §2, §3, §4, §5

[5] = MTT viability assay, NHDF; assay type: cell-based, human; details: human, normal human dermal fibroblasts (NHDF), tested 1–500 µM
Experimental: as §1, §2, §3, §4, §5

HT29 cells = experiment: Migration (scratch) assay; assay type: cell-based, human; details: control T 155558.2, control T0 544366.45
Experimental: The scratch test was performed to verify that the tested compound 3g could inhibit the formation of metastases by the HT29 cell line. The seeded HT29 cells were incubated until they formed a monolayer over the entire surface of the well. Then, a scratch test was performed by making a scratch in the monolayer and measuring its width—that is, To, amounting to 544,366.45 μm^2. Freshly prepared compounds were added to the HT29 cells at concentrations of 10, 25, 50, and 100 μM. Breeding plates were incubated for 24 h. The next day, scratch width was measured again using the ImageJ open-source platform. […] The lowest cellular overgrowth of HT29 culture occurred at the concentration of 100 μM for the compound. Compound 3g inhibited the migration of HT29 cells more strongly than the reference drugs, showing that it has the potential to inhibit metastasis. The width of the scratch after 24 h when no compound was applied to the cells was used as a control (T = 155,558.2 μm^2).
as §1, with “All cell lines were grown in 5% CO2 at 95% humidity and 37 °C, with both morphology and confluence assessed twice per week. When” for “When”
After seeding, HT29 cells were incubated until they formed a monolayer over the entire surface of the well. A scratch was made on the surface overgrown with cells, and then photomicrographs of the scratch were taken using the EVOS FL microscope. The freshly prepared compound 3g and the reference drugs were added at concentrations of 10, 25, 50, and 100 µM. Then, they were incubated for 24 h, and micrographs were performed at that time using the EVOS FL microscope. The scratch width was measured using the ImageJ open-source platform. The measurement of scratch width was also performed after 24 h without adding compounds.

[6] = tested on: metastatic colon adenocarcinoma (LoVo); experiment: MTT viability assay, LoVo; assay type: cell-based, human; details: for SI (selectivity index): CC50 NHDF / CC50 LoVo; for CC50: Homo sapiens, LoVo, MTT, tested 1–500 µM
Experimental: as §1, §2, §3, §4, §5

[7] = tested on: lung adenocarcinoma (A549); experiment: MTT viability assay, A549; assay type: cell-based, human; details: for SI (selectivity index): CC50 NHDF / CC50 A549; for CC50: Homo sapiens
Experimental: as §1, §2, §3, §4, §5

[8] = tested on: HT29 primary colon adenocarcinoma cells; experiment: Detection of apoptosis (Annexin V FITC / propidium iodide); assay type: cell-based, human; set-up: unit not given here; details: 24 h
Experimental: as §1, with “All cell lines were grown in 5% CO2 at 95% humidity and 37 °C, with both morphology and confluence assessed twice per week. When” for “When”
HT29 primary colon adenocarcinoma cells were grown in 96-well plates for 24 h. The 5 selected derivatives were added at concentrations of 1, 2, 5, and 10 µM, and then incubated for 24 h. The mixture of Annexin V conjugated with fluorescein and propidium iodide in PBS with Mg^2+ and Ca^2+ ions (Thermo Fisher Scientific, Waltham, MA, USA) was then applied. The incubation lasted 20 min at 37 °C. Pictures were taken using a fluorescence microscope. Thirteen images were taken from each well using an EVOS FL fluorescence microscope, with three replications for each compound. The open ImageJ space was used to analyze the number of cells. The Thermo Fisher Dead Cell Apoptosis Kit with Annexin V FITC and Propidium Iodide (PI) detects phosphatidylserine extrusion in apoptotic cells using Annexin V conjugated with a green fluorescent FITC dye and dead cells stained by PI with red fluorescence.

[9] = Homo sapiens, HT-29, HT29, MTT, tested 1–500 µM

| Compound | CC50 [4] | SI (selectivity index) [1] | CC50 [1, 9] | CC50 [5] | SI (selectivity index) [3] | CC50 ([3]; MCF7, MTT, tested 1–500 µM) | apoptosis mean ([8]; 1 μM) | late apoptosis mean ([8]; 1 μM) | necrosis mean ([8]; 1 μM) | percent live (viable) cells ([8]; 1 μM) | apoptosis mean ([8]; 2 μM) | late apoptosis mean ([8]; 2 μM) | necrosis mean ([8]; 2 μM) | percent live (viable) cells ([8]; 2 μM) | apoptosis mean ([8]; 5 μM) | late apoptosis mean ([8]; 5 μM) | necrosis mean ([8]; 5 μM) | percent live (viable) cells ([8]; 5 μM) | apoptosis mean ([8]; 10 μM) | late apoptosis mean ([8]; 10 μM) | also measured |
| --- | --- | --- | --- | --- | --- | --- | --- | --- | --- | --- | --- | --- | --- | --- | --- | --- | --- | --- | --- | --- | --- |
| Cc1noc(N)c1-c1nc2c(NCCO)ncnc2o1 [Compound 3h, 2-(5-Amino-3-methylisoxazol-4-yl)-7-N-(2-hydroxyethyl)aminooxazolo[5,4-d]pyrimidine] | 146 ± 11.1 µM | – | – | – | – | – | – | – | – | – | – | – | – | – | – | – | – | – | – | – | CC50 ± SD ([1]; HT29, MTT, tested 1–500 µM): lack cytotoxic activity; melting point: 213 to 214 °C (dec.); CC50 ± SD [2]: Non-toxic; CC50 ± SD ([3]; MCF7, MTT, tested 1–500 µM): no cytotoxic activity |
| O=c1[nH]cc(F)c(=O)[nH]1 [Compound 5-FU, 5-fluorouracil, reference compound] | 38.1 ± 7.13 µM | 0.053 | 381 µM | 20.4 ± 2.97 µM | 0.094 | 217 ± 20 µM | 7.92 | 31.72 | 10.48 | 59.77 | 10.65 | 28.91 | 8.86 | 63.94 | 10.75 | 33.06 | 8.39 | 60.16 | 3.81 | 16.02 | CC50 ([1]; HT29, MTT, tested 1–500 µM): 381 ± 25.5 µM; scratch width after 24 h, mean (HT29 cells; 10 μM): 155098.248 μm^2; scratch width after 24 h, mean (HT29 cells; 25 μM): 192391.405 μm^2; scratch width after 24 h, mean (HT29 cells; 50 μM): 198312.887 μm^2; scratch width after 24 h, mean (HT29 cells; 100 μM): 282974.4 μm^2; SI (selectivity index) [6]: 0.282; SI (selectivity index) [7]: 0.076; CC50 ([7]; A549, MTT, tested 1–500 µM): 269 ± 17.2 µM; necrosis mean ([8]; 10 μM): 34.82; percent live (viable) cells ([8]; 10 μM): 55.23 |
| Cc1noc(N)c1-c1nc2c(NCCN3CCOCC3)ncnc2o1 [Compound 3j, 2-(5-Amino-3-methylisoxazol-4-yl)-7-N-[2-(morpholin-4-yl)ethyl]aminooxazolo[5,4-d]pyrimidine] | 52.9 ± 9.51 µM | >>1 | 99.9 ± 10.9 µM | – | >>1 | 197 ± 13.1 µM | 5.45 | 29.25 | 8.01 | 57.30 | 8.18 | 26.44 | 3.92 | 61.47 | 8.28 | 30.59 | 3.45 | 57.69 | 1.34 | 13.55 | CC50 ± SD [2]: no toxicity at all; also recorded: Non-toxic; necrosis mean ([8]; 10 μM): 32.35; percent live (viable) cells ([8]; 10 μM): 52.76 |
| CCCNc1ncnc2oc(-c3c(C)noc3N)nc12 [Compound 3c, 2-(5-Amino-3-methylisoxazol-4-yl)-7-N-propylaminooxazolo[5,4-d]pyrimidine] | 90.6 ± 8.75 µM | 0.766 | 224 ± 23.1 µM | 172 ± 14.5 µM | 0.862 | 199 ± 16.1 µM | – | – | – | – | – | – | – | – | – | – | – | – | – | – | melting point: 220 to 221 °C (dec.); CC50 ± SD ([7]; A549, MTT, tested 1–500 µM): no activity |
| CCCCCNc1ncnc2oc(-c3c(C)noc3N)nc12 [Compound 3e, 2-(5-Amino-3-methylisoxazol-4-yl)-7-N-pentylaminooxazolo[5,4-d]pyrimidine] | 89.2 ± 6.04 µM | 0.963 | 129 ± 10 µM | 125 ± 11.5 µM | 0.804 | 155 ± 15.5 µM | 6.20 | 11.11 | 4.53 | 78.17 | 4.33 | 12.44 | 9.43 | 73.80 | 5.40 | 18.31 | 10.22 | 66.07 | 4.05 | 22.59 | SI (selectivity index) [6]: 0.702; CC50 [6]: 178 ± 6.65 µM; SI (selectivity index) [7]: 0.999; CC50 ([7]; A549, MTT, tested 1–500 µM): 125 ± 12.1 µM; necrosis mean ([8]; 10 μM): 20.74; percent live (viable) cells ([8]; 10 μM): 52.63 |
| Cc1noc(N)c1-c1nc2c(NCCN(C)C)ncnc2o1 [Compound 3f, 2-(5-Amino-3-methylisoxazol-4-yl)-7-N-[2-(N,N-dimethylamino)ethyl]aminooxazolo[5,4-d]pyrimidine] | 207 ± 16.5 µM | 1.124 | 153 ± 15 µM | 172 ± 20.7 µM | 0.881 | 195 ± 12 µM | 7.07 | 3.15 | 0.16 | 89.62 | 3.08 | 7.34 | 5.76 | 83.82 | 6.76 | 12.74 | 5.73 | 74.77 | 18.64 | 6.51 | SI (selectivity index) [6]: 0.729; CC50 [6]: 235 ± 13 µM; SI (selectivity index) [7]: 1.161; CC50 ([7]; A549, MTT, tested 1–500 µM): 148 ± 13.8 µM; necrosis mean ([8]; 10 μM): 2.78; percent live (viable) cells ([8]; 10 μM): 72.06 |
